Ends that are not written are not given here.
Experiments:
A. baumannii ATCC19606 = test: Outer membrane permeabilization (NPN uptake) assay; format: cell-based, Acinetobacter baumannii; settings: peptides at MIC, compared to untreated control and polymyxin B
Procedure: FIG. 3. Synergy, resistance development and mechanism of action studies of encrypted peptides. […] (FIG. 3B) Evolution of resistance by A. baumannii to encrypted peptides derived from the CUB domain (red) or polymyxin B (gray) after 30 days of serial passaging in liquid nutrient broth. Peptides and antibiotics were used at sub-inhibitory concentrations. Cells were passaged every 48 h. […] (FIG. 3D) Cytoplasmic membrane depolarization effects of the encrypted peptides against A. baumannii. (FIG. 3E) NPN assays showing the effect of encrypted peptides derived from the CUB domain and natriuretic peptide on permeabilization of the outer membrane of A. baumannii.
In order to investigate the mode of action of encrypted peptides against bacterial cells, assays were performed to study their effects on the bacterial membrane. First, the ability of encrypted peptides to disrupt and depolarize the bacterial cytoplasmic membrane was assessed […]. 3,3′-dipropylthiadicarbocyanine iodide [DiSC3(5)] was used, a potentiometric fluorophore that accumulates and aggregates in the cytoplasmic membrane, quenching its fluorescence. Upon imbalances of the cytoplasmic membrane transmembrane potential, the fluorophore migrates to the cytoplasm or the outer environment, generating fluorescence. […]
Methods: Membrane depolarization assays. The cytoplasmic membrane depolarization activity of the peptides was determined by measurements of fluorescence of the membrane potential-sensitive dye, DiSC3(5). […] Thereafter, the cells (100 μL) were incubated for 15 min with 20 nmol L^−1 of DiSC3(5) until a stable reduction of fluorescence was achieved, indicating the incorporation of the dye into the bacterial membrane. Membrane depolarization was then monitored by observing the change in the fluorescence emission intensity of the membrane potential-sensitive dye, DiSC3(5) (λex=622 nm, λem=670 nm), after the addition of peptides (100 μL solution at MIC values). […] The membrane permeability of the peptides was determined by using the N-phenyl-1-napthylamine (NPN) uptake assay. […]

P. aeruginosa PAO1 = test: Neutropenic thigh infection mouse model; format: in vivo, Pseudomonas aeruginosa; settings: for anti-infective activity (FIG. 4E): alone, P. aeruginosa PAO1; for decrease of bacterial counts compared to untreated controls: mice, 25 μmol L^−1 intramuscular, three days post-treatment, P. aeruginosa
Text: FIG. 4. Anti-infective activity and synergistic interactions of encrypted peptides in vivo. (FIG. 4A) Schematic of the skin abscess mouse model used to assess the anti-infective activity of selected encrypted peptides from plasma proteins. […] (FIG. 4C) Mouse weight was monitored throughout the experiment (2 days) to rule out potential toxic effects of the encrypted peptides. (FIG. 4D) Schematic of the neutropenic thigh infection mouse model used to assess the anti-infective activity of selected encrypted peptides from plasma proteins. […] (FIG. 4F) Mouse weight was monitored throughout the experiment (8 days) to rule out potential toxic effects of the encrypted peptides.
Next, the efficacy of the same encrypted peptides (SCUB1-SKE25 and SCUB3-MLP22) was assessed in monotherapy and in combination therapy in a murine thigh infection model (FIG. 4D). This preclinical model is sensitive, standardized, and widely used for assessing antibiotic translatability^43,44. Briefly, mice were rendered neutropenic by cyclophosphamide treatment prior to intramuscular infection with 10^6 cells mL^−1 of the bacterial pathogens P. aeruginosa and A. baumannii (FIG. 4E). Either a single dose of each encrypted peptide (at 25 μmol L^−1) or their combination (also at 25 μmol L^−1) were delivered to the infected site via intramuscular administration. Three days post-treatment, on average the peptides reduced the bacterial load of P. aeruginosa and A. baumannii by 4 and 2 orders of magnitude, respectively, compared to untreated mice.
Methods: Skin abscess infection mouse model. A. baumannii ATCC19606 and P. aeruginosa strain PAO1 were used to infect the murine skin. Briefly, bacteria were grown in tryptic soy broth (TSB) medium. Subsequently, cells were washed twice with sterile PBS (pH 7.4, 13,000 rpm for 1 min), and resuspended to a final concentration of 1×10^5 and 1×10^6 CFU/20 μL for A. baumannii and P. aeruginosa, respectively. Female CD-1 mice (six-weeks old) were anesthetized with isoflurane and had their backs shaved and a superficial linear skin abrasion was made with a needle in order to damage the stratum corneum and upper-layer of the epidermis. […] Animals were euthanized and the area of scarified skin was excised two- and four-days post-infection, homogenized using a bead beater for 20 minutes (25 Hz), and 10-fold serially diluted for CFU quantification. […] Prior to each injection, mice were anesthetized with isoflurane and monitored (respiratory rate and pedal reflexes). Next, we monitored the formation of the abscess and euthanized the mice. The infected area was excised three-days post-infection, homogenized using a bead beater for 20 min (25 Hz), and 10-fold serially diluted for CFU quantification. […]

Row | Sequence | outer membrane permeabilization (NPN fluorescence) (A. baumannii ATCC19606) | anti-infective activity (FIG. 4E) (P. aeruginosa PAO1) | decrease of bacterial counts compared to untreated controls (P. aeruginosa PAO1)
1 | MLPKSFIKLLRSKVSSFLRPYK [SCUB3-MLP22] | increased fluorescence | reduced infections | 3 orders of magnitude
2 | SKEMFPRSFIKLLRSKVSRFLRPYK [SCUB1-SKE25] | increased fluorescence | reduced infections | 3 orders of magnitude

— patent US20240194290A1, “HIDDEN ANTIBIOTICS IN THE HUMAN PROTEOME” (THE TRUSTEES OF THE UNIVERSITY OF PENNSYLVANIA, priority 2021, published 2024)
